Legend:
[1] = Water-barrier function (WBF) test, water-evaporation rate; type: physicochemical; conditions: for Water-evaporation rate (mg/hr/cm2): ceramide/CL/CS (40/30/30) dispersed with 10% arginine oleate, 37° C., humidity 40%
Procedure: (§1) A sample solution was prepared, based upon the lamellar liquid crystal (LLC) method of various methods for preparing liposome [Colloids and Surfaces, 69, p.125 (1992)]. Appropriate amounts of the lipid mixture (for example, Ce II (2S,3R)/CL/CS, a weight ratio of 40/30/30, corresponding to the LLC region of the phase diagram) were weighed into a test tube, allowed to stand at 135° C. for 10 minutes, cooled down to room temperature and then appropriate amounts of propylene glycol/glycerol (a weight ration of 1/1) were added to the mixture. These samples were left at 135° C. for 10 minutes and then shaken vigorously. This procedure was repeated three times. Then, oleic acid and an aqueous solution of L-arginine were added in turn and shaken (80 to 90° C.). The LLC gel thus obtained was diluted with a buffer of pH 6.86 to give a vesicle solution of a uniform mixture of ceramides.
A sample solution was coated over a supporting membrane covered with a protein at the surface and left under vacuum overnight to remove water thoroughly. The membrane was fixed in the stainless dish containing 20 ml of water and allowed to stand at 37° C. and a humidity of 40%. The evaporated water was calculated per time unit and area unit to determine the water-evaporation rate of WBF.
All samples tested as shown in Table 4 were mixtures of ceramide/CL/CS (40/30/30) and dispersed with 10% arginine oleate.
All samples tested as shown in Table 5 were mixtures of ceramide/CL/CS (40/30/30) and dispersed with 10% arginine oleate.

[2] = Solubility in cosmetic solvents; type: physicochemical
Procedure: Solubilities of ceramide-II (hereinafter referred to as CeII) of (2S,3R) type and ceramides of other optical isomers were studied. Ethanol, isopreneglycol, propylenglycol, glycerol, oleic acid, ethyl oleate and isopropyl myristate were used as the cosmetic solvents. Each sample was heated up to about 90° C. with vigorous shaking and cooled down to room temperature and then observed visually. 1.

[3] = Water-holding capacity (WHC) test of sample solution; type: physicochemical
Procedure: as §1
A sample solution was applied to a small petri dish and left at 37° C. and a humidity of 40%. The water evaporated as the time lapsed was measured and the ratio of the water remaining in the sample was calculated from the measured value to study WHC.
The samples tested as shown in Table 2 were all mixtures of ceramide/CL/CS (40/30/30) and dispersed with 10% arginine oleate. A control was an aqueous solution of propyleneglycol/glycerol (1/1). […]

[4] = test system: forearm treated with chloroform/methanol (damaged skin); assay: Transepidermal water-loss (TEWL) test; type: in vivo, human; conditions: for TEWL (g/m^2/hr): ceramide/CL/SSL (50/20/30) dispersed with 10% arginine oleate, forearm, twice per day for 2 days, data after 10 hours
Procedure: The forearm was treated with chloroform/methanol (1/1), each sample was coated on the site and TEWL was determined (n=4, twice per day, used for 2 days).
All tested samples were the (2S,3R) type and the (2S,3S) type and were mixtures of ceramide/CL/SSL (=sodium stearyllactate) (50/20/30). They were dispersed with 10% arginine oleate.

[5] = Test on conditioner effect to hair (WHC); conditions: ceramide/CL/SA (40/20/40) dispersed with 10% arginine oleate, 35° C., humidity 70% overnight
Procedure: Hairs were treated with chloroform/methanol (2/1) and bundles of hairs were coated with samples, rinsed away and then dried under vacuum overnight. They were left at 35° C. and a humidity of 70% overnight. They were weighed to determine the hydrated amount to the dried hairs as WHC.
All tested samples were the (2S,3R) type and the (2S,3S) type and were mixtures of ceramide/CL/SA (=stearic acid) (40/20/40). They were dispersed with 10% arginine oleate.

Structure (SMILES)	Water-evaporation rate (mg/hr/cm2) ([1]; Table 5)	solubility in cosmetic solvents ([2]; compared among Ce II isomers)	level dissolved in ethanol ([2]; ethanol) [%]	Water-holding capacity (%) (After 5 hours) ([3]; ceramide/CL/CS (40/30/30) dispersed with 10% arginine oleate, 37° C., humidity 40%, after 5 hours)	water-holding capacity compared ([3]; versus the racemates, the SP ceramide, etc.)	Water-evaporation rate (mg/hr/cm2) ([1]; Table 4)	capacity to restrain the water evaporation ([1]; versus other types)	TEWL (g/m^2/hr) [4] [g/m^2/hr]	TEWL improvement ([4]; compared with uncoated sites / non-treated normal skin)	Water-holding capacity (%) [5] [%]	melting point [°C]
CCCCCCCCCCCCCCCCCC(=O)N[C@H](CO)[C@@H](O)CCCCCCCCCCCCCCC [(2R,3S), erythro (2R, 3S) type of ceramide-II, reference compound]	2.9	–	–	–	–	–	–	–	–	–	–
CCCCCCCCCCCCCCCCCC(=O)N[C@@H](CO)[C@H](O)CCCCCCCCCCCCCCC [(2S,3R), ceramide-II of erythro (2S,3R) type]	2.5	lowest solubility	0.1	22.4	significantly higher water-holding capacity	2.5	more superior to other types	2.8	can recover to the TEWL value of the non-treated normal skin more rapidly	8.2	95 to 96
CCCCCCCCCCCCCCCCCC(=O)N[C@@H](CO)[C@@H](O)CCCCCCCCCCCCCCC [(2S,3S), threo (2S, 3S) type of ceramide-II]	3.6	–	–	–	–	–	–	4.1	–	–	101

Source: US6355232B1, “Agent for protecting skin and hair moisture” (Takasago International Corporation, priority 1996, dated 2002)
